From US20250382250A1, “STILBENE DERIVATIVE AS AHR AGONIST AND USE THEREOF” (NANJING GRITPHARMACO., LTD., priority 2022, published 2025)
Marks after values point to notes of the source that are not given here.

Key:
atopic dermatitis = test: DNFB-induced atopic dermatitis mouse model (AD Score); type: in vivo, BALB/C mice; set-up: scale not given here; settings: DNFB mice
Procedure: 56 clean-grade BALB/C mice aged 6-8 weeks were subjected to 5 days of adaptive feeding and then randomized into 7 groups of 8 mice each: • A. Blank control group • B. Modeling+solvent group • C. Modeling+blank matrix group • D. Modeling+positive drug mometasone furoate group • E. Modeling+1 wt % of benvitimod group • F. […] The animal experiments were conducted in accordance with the Experimental Animal Feeding, Management and Use Guidelines of China Pharmaceutical University and in compliance with animal study ethics and regulations. As shown in the above procedures, the solvent control or DNFB was given in the morning for modeling; from day 5, the test compound ointment was administered once every afternoon at 50 mg/dose evenly on the skin surface. The specific administration method is as shown above; Specific procedures: […] Severity of atopic dermatitis was scored using the AD Score criteria The severity of the appearance of dermatitis was evaluated based on 4 indicators: A. erythema/bleeding; B. dryness; C. effusion/crusting; D. edema.

DSS-induced colitis = DSS-induced colitis mouse model; type: in vivo, C57BL/6 mice; settings: 10 mg/kg intragastric, DSS 2.5% 8 days; for effect on colon length: day 9
Procedure: • (1) Animals: 40 C57BL/6 mice, male, aged 8 weeks, 22-24 g • (2) Materials: […] Biomedicals, USA, Cat. No. […] Tween 80; Wahaha purified water • (3) Procedures: […] The solution was inspected daily and replaced with fresh DSS solution when necessary. On day one after modeling, the treatment was given. […] On day 9, the mice were sacrificed, and the blood and colon were collected. The colon length, occult blood in the cecal contents, and other conditions were also recorded. Test compound formulation: 1.00 mg of compound powder was dissolved in 20 μL of DMSO completely. Then, 20 μL of Tween 80 was added, and the mixture was well mixed. 0.96 mL of Wahaha purified water was added, and the mixture was well mixed to give a 1 mg/mL solution, which was administered at a dose of 0.1 mL/10 g (body weight). Solvent: 20 μL of DMSO, 20 μL of Tween 80, and 0.96 mL of Wahaha purified water were mixed well (used in the modeling group).

IMQ-induced psoriasis = IMQ-induced psoriasis in mice (PASI score); type: in vivo, KM mice; settings: for PASI score (folds, scales, erythema): IMQ mice, 1.2 wt % in blank matrix, 62.5 mg topical
Procedure: • 1) The efficacy on IMQ-induced psoriasis in mice by compound 6 # was evaluated.
[drawing 91] • 2) Grouping • (1) Petrolatum+blank matrix group, 10 mice; • (2) IMQ+blank matrix group, 10 mice; • (3) IMQ+compound 6 #group (1.2 wt % in blank matrix), 10 mice. • IMQ: imiquimod • 3) Formulation • IMQ: 5% imiquimod (imiquimod was used for inducing psoriasis on the skin of modeling mice) 1.2% compound 6 #formulation was prepared in blank matrix • 4) Animals • Species and strain: SPF-grade KM mice, male • Weight: 35-40 g • Source: SPF (Beijing) Biotechnology Co., Ltd. • Housing conditions: air-conditioned room, with a temperature of 18-26° C. and a relative humidity of 20%-60%. • 5) Procedures
Skin pretreatment: Mice were given free access to water and food. After 5 days of adaptation in the animal room, the hair on the back of the mice within an area of 2 cm×2.5 cm was shaved. The area was treated with a depilatory cream for 30 s-1 min, and then the cream was removed with cotton pads. Randomization: 24 h after depilation, […] by weight: petrolatum+blank matrix group (10 mice); IMQ+blank matrix group (10 mice); IMQ+compound 6 #group (1.2% compound in blank matrix) (10 mice).
Modeling and treatment: 62.5 mg of 5% imiquimod or petrolatum in the morning was administered to the mice in the morning. In the afternoon, 62.5 mg of blank matrix or 1.2% compound 6 # was smeared on the back.
Recording: Before modeling in the morning, the condition of the skin folds, erythema, and scales was observed, scored, and photographed daily, and the mouse PASI score was calculated.

[1] = day 0, before ointment treatment (from day 5)
[2] = day 4, before ointment treatment (from day 5)
[3] = day 6, ointment 50 mg once daily from day 5 (1.2 wt % 2#/6#, 1 wt % benvitimod)
[4] = day 8, ointment 50 mg once daily from day 5 (1.2 wt % 2#/6#, 1 wt % benvitimod)
[5] = day 10, ointment 50 mg once daily from day 5 (1.2 wt % 2#/6#, 1 wt % benvitimod)

Structure (SMILES) | Back AD score (atopic dermatitis; [1]) | Back AD score (atopic dermatitis; [2]) | Back AD score (atopic dermatitis; [3]) | Back AD score (atopic dermatitis; [4]) | Back AD score (atopic dermatitis; [5]) | disease activity indicator (body weight change and hematochezia) (DSS-induced colitis) | effect on colon length (DSS-induced colitis) | PASI score (folds, scales, erythema) (IMQ-induced psoriasis; Day 1) | PASI score (folds, scales, erythema) (IMQ-induced psoriasis; Day 2) | PASI score (folds, scales, erythema) (IMQ-induced psoriasis; Day 3) | PASI score (folds, scales, erythema) (IMQ-induced psoriasis; Day 4) | PASI score (folds, scales, erythema) (IMQ-induced psoriasis; Day 5) | PASI score (folds, scales, erythema) (IMQ-induced psoriasis; Day 6) | PASI score (folds, scales, erythema) (IMQ-induced psoriasis; Day 7) | therapeutic effect versus IMQ+blank matrix group (IMQ-induced psoriasis; day 7, 1.2 wt % in blank matrix)
Oc1cc(/C=C/c2ccc(F)cc2)cc(O)c1C1CCCCC1 [Compound 6, (E)-2-cyclohexyl-5-(4-fluorostyryl)-1,3-benzenediol] | 0.00 ± 0.00 | 3.50 ± 0.35 | 5.56 ± 1.45 | 6.69 ± 1.64**^a | 5.44 ± 1.13**^aab | a more significant effect | superior to that in the reference 1 #benvitimod group | 3.90 | 4.30 | 6.10 | 6.30 | 6.50 | 5.80 | 5.60 | significantly superior therapeutic effect
CC(C)c1c(O)cc(/C=C/c2ccccc2)cc1O [Reference 1#, Benvitimod, reference compound] | 0.00 ± 0.00 | 3.63 ± 0.78 | 7.44 ± 1.07 | 7.19 ± 1.14 | 6.81 ± 1.00 | good therapeutic effects | the conditions were improved |  |  |  |  |  |  |  | 
